Test results as given in patent US4920119A, “Triazine derivatives” (Hoffmann-La Roche Inc., priority 1986, dated 1990).

What follows are compounds tested against T1, Xanthine oxidase (Rattus norvegicus, UniProt P22985) (assay: xanthine oxidase inhibiting activity (xanthine oxidase-catalyzed oxidation of xanthine to uric acid)). Settings: xanthine oxidase from rat liver; 10^-5 molar xanthine, 0.1M tris hydrochloride pH 8.1, 30° C., uric acid formation at 293 nm.
T1 construct: Xanthine oxidase was obtained from rat liver; from tissue; host or cells: rat liver
T1 sequence (P22985 whole entry): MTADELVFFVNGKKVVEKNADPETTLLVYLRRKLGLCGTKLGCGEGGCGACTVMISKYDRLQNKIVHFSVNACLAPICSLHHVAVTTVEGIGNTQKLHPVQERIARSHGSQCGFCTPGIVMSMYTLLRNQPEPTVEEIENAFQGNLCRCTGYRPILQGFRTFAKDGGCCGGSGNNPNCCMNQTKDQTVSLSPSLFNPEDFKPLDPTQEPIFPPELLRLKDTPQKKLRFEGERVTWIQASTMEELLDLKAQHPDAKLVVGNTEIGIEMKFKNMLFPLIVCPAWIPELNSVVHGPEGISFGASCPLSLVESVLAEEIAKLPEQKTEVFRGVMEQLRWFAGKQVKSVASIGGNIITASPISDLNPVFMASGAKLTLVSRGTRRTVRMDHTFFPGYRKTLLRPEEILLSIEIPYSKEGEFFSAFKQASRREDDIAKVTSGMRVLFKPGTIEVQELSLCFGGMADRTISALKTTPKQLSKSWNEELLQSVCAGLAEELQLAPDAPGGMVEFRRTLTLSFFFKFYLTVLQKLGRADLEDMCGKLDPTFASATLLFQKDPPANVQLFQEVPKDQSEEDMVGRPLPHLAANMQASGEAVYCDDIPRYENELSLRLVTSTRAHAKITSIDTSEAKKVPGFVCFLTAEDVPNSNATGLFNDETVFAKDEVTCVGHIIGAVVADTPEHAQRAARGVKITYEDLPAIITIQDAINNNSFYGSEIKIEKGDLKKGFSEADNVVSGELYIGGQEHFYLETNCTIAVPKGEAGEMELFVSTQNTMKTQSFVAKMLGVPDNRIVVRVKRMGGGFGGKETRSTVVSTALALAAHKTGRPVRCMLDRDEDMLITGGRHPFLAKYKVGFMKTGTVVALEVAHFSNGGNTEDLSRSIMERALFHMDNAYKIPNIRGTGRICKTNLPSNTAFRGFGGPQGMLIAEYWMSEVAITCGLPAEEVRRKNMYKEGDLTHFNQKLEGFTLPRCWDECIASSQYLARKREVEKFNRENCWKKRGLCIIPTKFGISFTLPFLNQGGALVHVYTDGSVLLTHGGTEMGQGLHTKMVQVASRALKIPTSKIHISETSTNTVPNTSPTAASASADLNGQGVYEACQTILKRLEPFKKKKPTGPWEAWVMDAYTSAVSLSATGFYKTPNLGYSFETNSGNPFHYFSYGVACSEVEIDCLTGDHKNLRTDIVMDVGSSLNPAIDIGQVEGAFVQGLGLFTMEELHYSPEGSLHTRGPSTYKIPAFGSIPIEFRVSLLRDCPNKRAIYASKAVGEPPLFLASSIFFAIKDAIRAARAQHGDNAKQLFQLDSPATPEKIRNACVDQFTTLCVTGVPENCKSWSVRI
Assay type: biochemical
Method: Xanthine oxidase was obtained from rat liver according to the method described by E. Della Corte and F. Stirpe in Biochem.J. 117, 97 (1970) and was aged for at least 24 hours prior to use. Solutions of 3 ml of 0.1M aqueous tris hydrochloride buffer (pH 8.1) containing 10^-5 molar xanthine were treated with 200 μl of xanthine oxidase dissolved in 0.1M aqueous tris hydrochloride buffer (pH 8.1) and incubated at 30° C. in the presence and absence of a test substance, whereupon the formation of uric acid from xanthine was monitored by measuring the light absorption at 293 nm. The IC50 , namely that concentration of a test substance required to inhibit by 50% the xanthine oxidase-catalyzed oxidation of xanthine to uric acid, was then determined.

Row | Structure (SMILES) | IC50
1 | COc1ccc(-c2nsc3c(=O)[nH]nnc23)cc1Cl [7-(3-chloro-4-methoxyphenyl)isothiazolo[4,5-d]-1,2,3-triazin-4(3H)-one] | 4 nM
2 | COc1ccc(-c2nsc3c(=O)[nH]nnc23)cc1F [7-(3-fluoro-4-methoxyphenyl)isothiazolo[4,5-d]-1,2,3-triazin-4(3H)-one] | 8 nM
3 | COc1ccc(-c2nsc3c(=O)[nH]nnc23)cc1C(F)(F)F [7-(3-trifluoromethyl-4-methoxyphenyl)isothiazolo[4,5-d]-1,2,3-triazin-4(3H)-one] | 4 nM
4 | CC(=O)Nc1ccc(-c2nsc3c(=O)[nH]nnc23)cc1 [7-(4-acetamidophenyl)isothiazolo[4,5-d]-1,2,3-triazin-4(3H)-one] | 7 nM
5 | O=c1[nH]nnc2c(-c3cccc(C(F)(F)F)c3)nccc12 [8-(3-trifluoromethylphenyl)pyrido[3,4-d]-1,2,3-triazin-4(3H)-one] | 48 nM

Further lines, results first:

Row | IC50 | Structure (SMILES)
6 | 35 nM | O=c1[nH]nnc2c1cnn2-c1cccc(C(F)(F)F)c1 [7-(3-Trifluoromethylphenyl)-7H-pyrazolo[3,4-d]-1,2,3-triazin-4(3H)-one]
7 | 6 nM | COc1ccc(-n2ncc3c(=O)[nH]nnc32)cc1Cl [7-(3-chloro-4-methoxyphenyl)-7H-pyrazolo[3,4-d]-1,2,3-triazin-4(3H)-one]
8 | 18 nM | CSc1ccc(-n2ncc3c(=O)[nH]nnc32)cc1 [7-(4-methylthiophenyl)-7H-pyrazolo[3,4-d]-1,2,3-triazin-4(3H)-one]
